According to patent US11208642B2, “Microbial syringol utilization” (Alliance for Sustainable Energy, LLC, priority 2018, dated 2021):

How the values were obtained:
GcoA-F169A and GcoB = molecular target: T1, GcoA-F169A and GcoB (Amycolatopsis sp., UniProt P0DPQ7, F169A/H210Q); test: Stoichiometric end-point analysis of reactants and products (HPLC, formaldehyde assay); type: biochemical; conditions: for Formaldehyde produced: 100 μM substrate, 210 μM O2, reaction to completion
T1 construct: GST (N, cleaved yes); made in house; host or cells: E. coli Rosetta 2 (DE3)
T1 sequence (P0DPQ7 whole entry F169A/H210Q): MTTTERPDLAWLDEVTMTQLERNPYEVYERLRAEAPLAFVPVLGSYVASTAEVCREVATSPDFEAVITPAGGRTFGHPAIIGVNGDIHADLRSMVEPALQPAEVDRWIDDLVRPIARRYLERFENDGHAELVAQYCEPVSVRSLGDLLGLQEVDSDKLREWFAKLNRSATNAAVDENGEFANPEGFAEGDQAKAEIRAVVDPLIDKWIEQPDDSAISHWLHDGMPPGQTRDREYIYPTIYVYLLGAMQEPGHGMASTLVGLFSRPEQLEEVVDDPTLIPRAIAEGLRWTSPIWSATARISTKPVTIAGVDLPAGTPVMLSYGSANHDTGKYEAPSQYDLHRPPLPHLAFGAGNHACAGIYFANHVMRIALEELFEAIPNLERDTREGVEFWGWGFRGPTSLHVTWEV
Experimental: FIG. 3 depicts quantitative analyses of substrate consumption and product generation indicate nearly complete coupling of NADH/O2 consumption to substrate O-demethylation for guaiacol, and progressively more uncoupling for syringol and 3MC. NADH (200 μM) and guaiacol, syringol, or 3MC (100 or 200 μM) were incubated in air with 0.2 μM GcoA-F169A and GcoB (each) (25 mM HEPES, 50 mM NaCl, pH 7.5, 25° C., 210 μM O2). Reactants and products were quantified when the UV/vis spectra ceased changing and the reaction deemed complete. The total NADH consumed is compared above to the amounts of formaldehyde and de-methylated aromatic compound produced. Pyrogallol, the O-demethylated product of 3MC, was not detected under any condition. Error bars represent ±1 standard deviation from three or more independent measurements.
Since both methoxy groups of syringol can potentially serve as substrates, we examined syringol turnover in a number of ways. Syringol (100 μM) was first incubated with NADH (200 μM) and excess dissolved O2 (210 μM), and the reaction with the GcoA-F169A mutant allowed to go to completion. As with the guaiacol reaction, all of the NADH and syringol were consumed (FIG. 3), implying that syringol undergoes two O-demethylations, producing 3MC and then pyrogallol (210 μM O2, 25 mM HEPES, 50 mM NaCl, pH 7, 25° C.).
The stoichiometric analysis was next repeated with NADH and syringol present in equal concentrations (200 μM each; 210 μM O2), conditions expected to permit at most half of the available methoxy groups to react. All of the NADH and 150±6 μM of syringol were consumed; 200±3 μM formaldehyde and 120±2 μM 3MC were generated (Table 1, FIG. 3).
Formaldehyde determination. A colorimetric assay using tryptophan can be used to quantify the amount of formaldehyde produced in F169 GcoA/B reactions with guaiacol, syringol, or 3MC. 0.2 μM each of F169 GcoA mutants and GcoB were dissolved in air-saturated buffer (25 mM HEPES, 50 mM NaCl) in a cuvette at pH 7.5, 25° C. 100 μg/mL catalase was added to each reaction to capture any H2O2 formed during the uncoupled reaction. Two hundred μM NADH was added and the background rate recorded. One hundred (guaiacol, syringol, or 3MC) or 200 (syringol) μM of substrate was then added and the reaction monitored until there was no more change, due to either substrate, NADH or O2 depletion, whichever occurred first. 200 μL of the reaction was then quenched by adding 200 μL of a 0.1% tryptophan solution in 50% ethanol and 200 μL of 90% sulfuric acid. Upon thorough mixing, 40 μL of 1% FeCl3 was added. The solution was then incubated in a heating block for 90 min at 70° C. After cooling, the absorbance was read at 575 nm and the concentration of formaldehyde was calculated by using ε575 nm=4.2 mM^−1 cm^−1, obtained with formaldehyde as a standard. A negative control included everything but the substrate and was used as a baseline.
Analyte analysis of the above end-point reactions (100 μM guaiacol, syringol, or 3MC, or 200 μM syringol) was performed on an Agilent 1100 LC system (Agilent Technologies) equipped with a G1315B diode array detector (DAD). Each sample and standard was injected at a volume of 10 μL onto a Symmetry C18 column 5 μm, 4.6×150 mm column (Waters). The column temperature was maintained at 30° C. and the buffers used to separate the analytes of interest was 0.01% TFA in water (A)/acetonitrile (B). The separation was carried out using a gradient program of: (A)=99% and (B)=1% at time t=0 min; (A)=99% and (B)=1% at time t=2 min, (A)=50% and (B)=50% at t=8 min; (A)=1% and (B)=99% at t=8.01 min; (A)=99% and (B)=1% at t=10.01 min; (A)=99% and (B)=1% at t=11 min. The flow rate was held constant at 1.5 mL min^−1, resulting in a run time of 11 minutes. DAD wavelengths of 210 and 325 nm were used for analysis of the analytes of interest. Standard curves were generated using 0-500 μM of guaiacol, syringol, 3MC, catechol, and pyrogallol. […]

GcoA = GcoA (Amycolatopsis sp., UniProt P0DPQ7, H210Q); test: Syringol binding to wild-type GcoA (KD)
GcoA, sequence (P0DPQ7 whole entry H210Q): as the sequence (P0DPQ7 whole entry F169A/H210Q) above, with A169F counted along it
Source text: The syringol binding mode can be modulated by active site engineering. Guaiacol assumes a productive orientation in the active site of GcoA due to the action of amino acid side chains that create a tight-fitting hydrophobic pocket. The closest contact is with GcoA-F169, which forms a hydrophobic interaction with the C6 carbon on the aromatic ring of guaiacol. […] We identified that the mutation of GcoA-F169 to a smaller residue may relieve the apparent steric clash between it and the bound ligand in the active site, allowing syringol to adopt a productive conformation. To test this hypothesis, GcoA-F169 was substituted with several alternative amino acids (A, S, H, V, I, and L) with the aim of introducing productive syringol turnover while retaining reactivity with guaiacol.

[1] = 200 μM syringol, 200 μM NADH, 210 μM O2

Structure (SMILES) | Formaldehyde produced (GcoA-F169A and GcoB; 200 μM NADH) | Kd (GcoA) | Singly demethylated intermediate 3MC observed at end of reaction (GcoA-F169A and GcoB; 100 μM syringol, 200 μM NADH, 210 μM O2) | 3MC generated (GcoA-F169A and GcoB; [1]) | Formaldehyde generated (GcoA-F169A and GcoB; [1]) | Syringol consumed (GcoA-F169A and GcoB; [1]) | Pyrogallol detection (GcoA-F169A and GcoB; any of the conditions used)
COc1cccc(O)c1O [3MC, 3-methoxycatechol] | approximately 100 μM |  |  |  |  |  | 
COc1cccc(OC)c1O [syringol, 2,6-dimethoxyphenol] | 170 ± 10 µM | 2800 ± 400 nM | 50 ± 4 µM | 120 ± 2 µM | 200 ± 3 µM | 150 ± 6 µM | not detected
